Data: patent publication US9586928B2 (The Scripps Research Institute, priority 2011, dated 2017)
pIC50: −log10 of the molar value.

How the values were obtained:
[1] = target: T1, GST-RORγ (Homo sapiens, UniProt P51449); test: RORγ scintillation proximity (SPA) radioligand binding assay, displacement of [3H]-T0901317; conditions: for remaining activity at 10 µM: 10 μM compound, read-out: RORγ SPA % bound = % radiolabel bound; for pIC50: displacement of 5 nM [3H]-T0901317 from GST-RORγ
T1 construct: 1 μg of GST-RORγ-LBD, 5 nM of [3H]T1317 as radioligand
T1 sequence (P51449 269-508 limits assumed): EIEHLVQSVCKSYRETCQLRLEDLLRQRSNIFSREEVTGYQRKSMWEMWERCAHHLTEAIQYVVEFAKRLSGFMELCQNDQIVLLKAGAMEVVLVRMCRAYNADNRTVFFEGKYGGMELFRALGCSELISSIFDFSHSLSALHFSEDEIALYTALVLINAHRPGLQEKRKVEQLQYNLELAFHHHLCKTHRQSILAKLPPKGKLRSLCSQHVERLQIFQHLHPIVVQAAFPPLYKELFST

[2] = target: T2, RORγ (Homo sapiens, UniProt P51449); test: Gal4-RORγ LBD / UAS luciferase cotransfection assay; type: cell-based; conditions: 10 μM
T2 construct: expressed in transfected cells; host or cells: HEK293T
T2 sequence (P51449 269-508 limits assumed): T1 sequence (P51449 269-508 limits assumed)

[3] = tested on: VP16; test: Gal4 DBD-VP16 / UAS luciferase control assay; type: cell-based; conditions: 10 μM
Description: (§1) The cells were treated with either DMSO or various compounds as indicated four hours after replating. Following additional 20 hour incubation, luciferase levels were assayed by one-step addition of 20 μL BriteLite (Perkin Elmer) and read using an Envision multilabel plate reader (Perkin Elmer).

[4] = target: T3, RORα (Homo sapiens, UniProt P35398); test: Gal4-RORα LBD / UAS luciferase cotransfection assay; type: cell-based; conditions: 10 μM
T3 construct: expressed in transfected cells; host or cells: HEK293T
T3 sequence (P35398 272-510 limits assumed): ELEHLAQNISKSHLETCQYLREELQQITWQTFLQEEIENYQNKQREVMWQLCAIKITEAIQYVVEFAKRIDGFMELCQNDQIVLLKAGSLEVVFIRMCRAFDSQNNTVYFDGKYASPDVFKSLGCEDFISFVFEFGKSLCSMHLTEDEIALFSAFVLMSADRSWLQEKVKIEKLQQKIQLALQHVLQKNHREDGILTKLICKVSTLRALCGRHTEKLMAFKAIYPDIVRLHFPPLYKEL
Description: as §1
(§2) Cotransfection assays were performed as previously described in HEK293 cells (Gal4 cotransfection assay or IL-17 luciferase reporter)[8]. HEK293 and the mouse lymphoma EL4 (ATCC) cells were maintained in DMEM supplemented with 10% FBS plus antibiotics (penicillin and streptomycin; Invitrogen).

[5] = target: T4, LXR (Homo sapiens, UniProt Q13133); test: Gal4-LXRα / UAS luciferase cotransfection assay; type: cell-based; conditions: 10 μM
T4 sequence (Q13133 209-447 limits assumed): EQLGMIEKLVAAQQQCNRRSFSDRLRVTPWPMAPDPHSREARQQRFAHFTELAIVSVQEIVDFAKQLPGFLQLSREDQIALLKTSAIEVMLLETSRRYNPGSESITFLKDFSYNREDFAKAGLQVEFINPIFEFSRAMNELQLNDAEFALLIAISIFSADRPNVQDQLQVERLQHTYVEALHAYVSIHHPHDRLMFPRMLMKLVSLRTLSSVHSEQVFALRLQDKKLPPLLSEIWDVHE
Description: as §1, §2

Compound: OC(c1ccc(-c2ccc(CN3CCN(Cc4ccncc4Cl)CC3)cc2)cc1)(C(F)(F)F)C(F)(F)F [Compound 92]
- remaining activity at 10 µM [1]: 25%
- RORγ repression, fold change over DMSO [2]: 0.1 fold change over DMSO
- VP16 repression, fold change over DMSO [3]: 0.6 fold change over DMSO
- RORα repression, fold change over DMSO [4]: 0.7 fold change over DMSO
- LXR activation, fold change over DMSO [5]: 5 fold change over DMSO

Compound: Cc1cc(-c2ccc(C(O)(C(F)(F)F)C(F)(F)F)cc2)ccc1CN1CCN(Cc2ccncc2)CC1 [Compound 94, 1,1,1,3,3,3-Hexafluoro-2-(3′-methyl-4′-((4-(pyridin-4-ylmethyl)piperazin-1-yl)methyl)-[1,1′-biphenyl]-4-yl)propan-2-ol]
- pIC50 [1]: 6.64
- RORγ repression, fold change over DMSO [2]: 0.05 fold change over DMSO
- VP16 repression, fold change over DMSO [3]: 0.8 fold change over DMSO
- RORα repression, fold change over DMSO [4]: 0.5 fold change over DMSO
- LXR activation, fold change over DMSO [5]: 0.8 fold change over DMSO

Compound: COc1cc(-c2ccc(C(O)(C(F)(F)F)C(F)(F)F)cc2)ccc1CN1CCN(Cc2ccncc2)CC1 [Compound 97, 1,1,1,3,3,3-Hexafluoro-2-(3′-methoxy-4′-((4-(pyridin-4-ylmethyl)piperazin-1-yl)methyl)-[1,1′-biphenyl]-4-yl)propan-2-ol]
- pIC50 [1]: 5.82
- RORγ repression, fold change over DMSO [2]: 0.05 fold change over DMSO
- VP16 repression, fold change over DMSO [3]: 0.5 fold change over DMSO
- RORα repression, fold change over DMSO [4]: 0.5 fold change over DMSO
- LXR activation, fold change over DMSO [5]: 1 fold change over DMSO

Compound: OC(c1ccc(-c2ccc(CN3CCN(Cc4ccncc4)CC3)c(F)c2)cc1)(C(F)(F)F)C(F)(F)F [Compound 98, 1,1,1,3,3,3-Hexafluoro-2-(3′-fluoro-4′-((4-(pyridin-4-ylmethyl)piperazin-1-yl)methyl)-[1,1′-biphenyl]-4-yl)propan-2-ol]
- pIC50 [1]: 5.82
- RORγ repression, fold change over DMSO [2]: 0.05 fold change over DMSO
- VP16 repression, fold change over DMSO [3]: 0.65 fold change over DMSO
- RORα repression, fold change over DMSO [4]: 0.8 fold change over DMSO
- LXR activation, fold change over DMSO [5]: 2 fold change over DMSO

Compound: O=C(c1ccc(-c2ccc(C(O)(C(F)(F)F)C(F)(F)F)cc2)cc1)N1CCN(Cc2ccncc2)CC1 [Compound 100, (4′-(1,1,1,3,3,3-Hexafluoro-2-hydroxypropan-2-yl)-[1,1′-biphenyl]-4-yl)(4-(pyridin-4-ylmethyl)piperazin-1-yl)methanone]
- pIC50 [1]: 5.77
- RORγ repression, fold change over DMSO [2]: 0.1 fold change over DMSO
- VP16 repression, fold change over DMSO [3]: 0.4 fold change over DMSO
- RORα repression, fold change over DMSO [4]: 0.6 fold change over DMSO
- LXR activation, fold change over DMSO [5]: 0.8 fold change over DMSO

Compound: OC(c1ccc(-c2ccc(CN3CCC(Nc4ccncc4)CC3)cc2)cc1)(C(F)(F)F)C(F)(F)F [Compound 104, 1,1,1,3,3,3-Hexafluoro-2-(4′-((4-(pyridin-4-ylamino)piperidin-1-yl)methyl)-[1,1′-biphenyl]-4-yl)propan-2-ol]
- remaining activity at 10 µM [1]: 20%
- RORγ repression, fold change over DMSO [2]: 0.1 fold change over DMSO
- VP16 repression, fold change over DMSO [3]: 0.4 fold change over DMSO
- RORα repression, fold change over DMSO [4]: 0.9 fold change over DMSO
- LXR activation, fold change over DMSO [5]: 1.1 fold change over DMSO

Compound: OC(c1ccc(-c2ccc(CN3CCN(Cc4cncs4)CC3)cc2)cc1)(C(F)(F)F)C(F)(F)F [Compound 114, 1,1,1,3,3,3-Hexafluoro-2-(4′-((4-(thiazol-5-ylmethyl)piperazin-1-yl)methyl)-[1,1′-biphenyl]-4-yl)propan-2-ol]
- remaining activity at 10 µM [1]: 50%
- RORγ repression, fold change over DMSO [2]: 0.87 fold change over DMSO
- VP16 repression, fold change over DMSO [3]: 0.92 fold change over DMSO
- RORα repression, fold change over DMSO [4]: 0.79 fold change over DMSO
- LXR activation, fold change over DMSO [5]: 0.63 fold change over DMSO

Compound: OC(c1ccc(-c2ccc(CN3CCN(Cc4cscn4)CC3)cc2)cc1)(C(F)(F)F)C(F)(F)F [Compound 115, 1,1,1,3,3,3-Hexafluoro-2-(4′-((4-(thiazol-4-ylmethyl)piperazin-1-yl)methyl)-[1,1′-biphenyl]-4-yl)propan-2-ol]
- remaining activity at 10 µM [1]: 75%
- RORγ repression, fold change over DMSO [2]: 0.31 fold change over DMSO
- VP16 repression, fold change over DMSO [3]: 0.69 fold change over DMSO
- RORα repression, fold change over DMSO [4]: 0.61 fold change over DMSO
- LXR activation, fold change over DMSO [5]: 0.76 fold change over DMSO

Compound: O=C(c1cscn1)N1CCN(Cc2ccc(-c3ccc(C(O)(C(F)(F)F)C(F)(F)F)cc3)cc2)CC1 [Compound 116, (4-((4′-(1,1,1,3,3,3-Hexafluoro-2-hydroxypropan-2-yl)-[1,1′-biphenyl]-4-yl)methyl)piperazin-1-yl)(thiazol-4-yl)methanone]
- remaining activity at 10 µM [1]: 76%
- RORγ repression, fold change over DMSO [2]: 0.59 fold change over DMSO
- VP16 repression, fold change over DMSO [3]: 0.76 fold change over DMSO
- RORα repression, fold change over DMSO [4]: 0.56 fold change over DMSO
- LXR activation, fold change over DMSO [5]: 0.81 fold change over DMSO
